Assay type in all cases: cell-based, human
The test system of data set [1] is DDX58/RIG-I. Kind of data set: CRISPR/Cas9 KO, IL-6 secretion by ELISA after nucleic acid stimulation. Particulars: ARPE-19-RIG-I KO, 0.25 μg/ml nucleic acid for 24 hours, FIG. 4B. As for the experimental part:
In addition to the type I IFN response, nucleic acid sensing can also activate NFκB-dependent cytokine release. IL-6 secretion was measured in ARPE19-Cas9, Control gRNA, and RIG-I gRNA cell line cultures 24 hours after nucleic acid stimulation to evaluate nucleic acid-induced NFκB activation in RPE cells. All cells were stimulated with 0.25 μg/ml nucleic acid for 24 hours, after which IL-6 secretion was measured by ELISA.
(§1) ARPE-19 cells stably expressing the Cas9 gene (ARPE19-Cas9) were generated by lentiviral transduction of ARPE-19 cells. Virus was harvested from supernatants of HEK-293T cells (ATCC) cotransfected with the in-house lentiviral vector pNGx_LV_c010 (39) and Lentiviral Packaging Plasmid Mix (Cellecta, Mountain View, CA; #CPCP-K2A) using TransIT-293 Transfection Reagent (MirusBio, Madison, WI). ARPE19-Cas9 cells were selected with 125 μg/mL HygromycinB (Invitrogen, Carlsbad, CA) and Cas9 expression was verified by western blot using Anti-FLAG primary antibody (Sigma-Aldrich #F1804). ARPE-19 RIG-I KO cells were generated by sgRNA expression in ARPE-19-Cas9 cells by lentiviral infection using the in-house lentiviral vector pNGx_LV_g003 (39). The sgRNA sequence targeting DDX58/RIG-I is 5′-[…]-3′ (SEQ ID NO: 1).
A general note: An ELISA detects its analyte on a solid surface through an enzyme-linked reagent.

Data set [2] deals with DDX58/RIG-I. Kind of data set: CRISPR/Cas9 KO, IFNβ secretion by ELISA after nucleic acid stimulation. Particulars: ARPE19-Cas9 cells, 0.25 μg/ml nucleic acid for 24 hours, FIG. 4A. As for the experimental part:
Further validation of the importance of RIG-I as an intracellular nucleic acid sensor was performed using CRISPR/Cas9 KO experiments in ARPE-19 cells. An ARPE-19 cell line stably expressing Cas9 (ARPE19-Cas9) was generated, along with control gRNA and RIG-I gRNA-transduced cell lines. ARPE-19 control gRNA and ARPE-19 RIG-I gRNA cells were generated by sgRNA expression in ARPE-19-Cas9 cells by lentiviral infection. The sgRNA sequence targeting DDX58/RIG-I was 5′-[…]-3′ (SEQ ID NO:1). Control sgRNA sequences used were: 5′-[…]-3′ (SEQ ID NO:8), 5′-[…]-3′ (SEQ ID NO:9), 5′-[…]-3′ (SEQ ID NO:10), and 5′-[…]-3′ (SEQ ID NO: 11). […] All cells were stimulated with 0.25 μg/ml nucleic acid for 24 hours, after which IFNβ secretion was measured by ELISA.
ARPE-19 cells stably expressing the Cas9 gene (ARPE19-Cas9) were generated by lentiviral transduction of ARPE-19 cells. […]
For ELISA, assays were run using Meso Scale Discovery plates (Meso Scale Diagnostics, Rockville, MD). […] Lysates or conditioned media were measured in 384-well plates using antibody pairs for ISG15 (R&D #AF4845, #A-830), IFNβ (R&D #DY814), IFNα1 (abcam #ab215408), IFNγ (R&D #DY285B), IFNλ1/3 (R&D #DY1598B), and cGAS (Cayman #23853, CST #66546). Protein levels were measured according to manufacturer instructions, and detected on a Meso Sector S 600 imager.

Data set [3] relates to DDX58/RIG-I. Kind of data set: anti-RIG-I/DDX58 western blot verifying knockout. Particulars: ARPE-19-Cas9 cells transduced with gRNA, FIG. 10D. The method, then: as §1, with “1). Control sgRNA sequences were:” for “1).”
Knockout was verified by western blot (FIG. 10D).
For western blot, samples (30 μg of protein) were dissolved in sample buffer (Invitrogen) and boiled for 5 min at 100° C. The sample was then separated by Criterion™ TGX™ precast gel electrophoresis and electrotransferred onto nitrocellulose membranes (Bio-Rad, Hercules, CA). […] The immuno-reactive proteins were detected using SuperSignal™ West Femto Maximum sensitivity substrate (ThermoFisher Scientific) and imaged on FluorChem M (ProteinSimple, San Jose, CA).

Data set [4] deals with RPE cells. Kind of data set: ISG15 induction by IFN stimulation (ELISA). Particulars: THP1, ARPE-19 or iPS-RPE cells, IFNs up to 100 μg/ml, 24 hours, FIGS. 2D to 2F.
Procedure: To test whether IFNs can induce an IFN response and, if so, which IFNs can induce an IFN response, cells were treated with different IFNs (IFNα1, IFNβ, IFNγ, or IFNλ1/2/3), and ISG15 induction was measured. Cells were treated with different IFN types at 100 ng/ml each (FIG. 2D) or 0 ng/ml IFN, 0.1 ng/ml IFN, 1 ng/ml IFN, 10 ng/ml IFN, or 100 ng/ml IFN (FIGS. 2E and 2F). ISG15 expression in was detected by ELISA 24 hours after treatment as described above, using antibody pairs for ISG15 (R&D #AF4845, #A-830).
For ELISA, assays were run using Meso Scale Discovery plates (Meso Scale Diagnostics, Rockville, MD). Lysates were extracted using cell lysis buffer (CST #9803), and supplemented with protease and phosphatase inhibitors. Lysates or conditioned media were measured in 384-well plates using antibody pairs for ISG15 (R&D #AF4845, #A-830), IFNβ (R&D #DY814), IFNα1 (abcam #ab215408), IFNγ (R&D #DY285B), IFNλ1/3 (R&D #DY1598B), and cGAS (Cayman #23853, CST #66546). Protein levels were measured according to manufacturer instructions, and detected on a Meso Sector S 600 imager.

Regarding “5′-ACTCACCCTCCCTAAACCAG-3′ (expressed or natural sequence) [RIG-I gRNA]”, in data set [1], the “poly(I:C)-induced IL-6 release” value is “only partially reduced”. Moreover, the “IFNβ secretion response to all nucleic acid species tested” value in data set [2] was “completely abrogated”. Further, the “DDX58 protein by western blot” value in data set [3] was “lack of detectable DDX58 protein”.

B1: IFNα: type I interferon purchased from R&D Systems (protein, UniProt P01562 24-189, looked up)
Interferon alpha-1/13: CDLPETHSLDNRRTLMLLAQMSRISPSSCLMDRHDFGFPQEEFDGNQFQKAPAISVLHELIQQIFNLFTTKDSSAAWDEDLLDKFCTELYQQLNDLEACVMQEERVGETPLMNADSILAVKKYFRRITLYLTEKKYSPCAWEVVRAEIMRSLSLSTNLQERLRRKE
Consider B1, for which, in data set [4], the “ISG15 induction in response to IFN stimulation” value is on record as “primarily responded”.

The values above are taken from US20240011030A1, “TREATMENTS FOR RETINAL DEGENERATIVE DISEASES” (Novartis AG, priority 2020, published 2024).
